{
  "source": "patent US20250295711A1",
  "about": "“FOOD SUPPLEMENT” (FONTERRA CO-OPERATIVE GROUP LIMITED, priority 2022, published 2025)",
  "format_in_all_cases": "in vivo, rat",
  "key": {"CUMS rats [1]": {"test_system": "CUMS rats", "assay": "Open field test in CUMS (chronic unpredictable mild stress) rats", "protocol": "(§1) A series of experiments were conducted using the chronic unpredictable mild stress (CUMS) rodent model. Rats were exposed daily to any two of the following mild physiological stresses selected at random: • 12 hours of water deprivation • 12 hours of food deprivation • 8 hours of damp sawdust • 24 hours of reversed light/dark cycle • 2 minutes of tail pinching • 1 hour of 60 Hz noise • 15 minutes of cage shaking • Swimming in 4° C. water for 5-10 minutes • 2 hours of restraining.\n(§2) Six groups of rats were assessed: • 1. Control rats: rats raised normally without stress treatments and without nutritional or drug interventions. • 2. CUMS rats: rats subjected to the CUMS protocol but without nutritional or drug interventions. • 3. CUMS HN001: rats subjected to the CUMS protocol and given HN001. • 4. CUMS HN019: rats subjected to the CUMS protocol and given HN019. • 5. CUMS HN001+HN019: rats subjected to the CUMS protocol given both HN001 and HN019. • 6.\n(§3) Baseline assessments were then conducted, including blood collection. For the next 40 days, rats in groups 2-6 were exposed to CUMS treatments to induce depression symptoms associated with stress and anxiety.\n(§4) Tests were then carried out to assess rat behaviours, such as the open field test and the elevated maze test (see FIG. 2). These are standard ways to measure rat stress and anxiety traits."}, "CUMS rats [2]": {"test_system": "CUMS rats", "assay": "Elevated-plus maze test in CUMS rats", "protocol": "as §1, §2, §3, §4"}, "TNF-α": {"test_system": "TNF-α", "assay": "TNF-α content in serum, brain and colon of CUMS rats", "protocol": "as §1, §2, §3\n(§5) A series of blood markers were assessed."}, "IL-6": {"test_system": "IL-6", "assay": "IL-6 content in serum, brain and colon of CUMS rats", "protocol": "as §1, §2, §3, §5"}, "[3]": {"test_system": "Corticotropin Releasing Hormone (CRH)", "assay": "Serum corticotropin releasing hormone content in CUMS rats", "conditions": "after CUMS, before intervention", "protocol": "as §1, §2, §3"}, "[4]": {"test_system": "Adrenocorticotropic Hormone (ACTH)", "assay": "Serum adrenocorticotropic hormone content in CUMS rats", "protocol": "as §1, §2, §3"}, "[5]": {"test_system": "TNF-alpha, IL-6, IL-1β and IL-18", "assay": "Cytokines TNF-alpha, IL-6, IL-1β and IL-18 in serum, brain tissue and colon of CUMS rats", "conditions": "versus CUMS", "protocol": "as §1, §2, §3, §5"}, "brain and colon tissue": {"test_system": "brain and colon tissue", "assay": "HE staining of brain and colon tissues of CUMS rats", "conditions": "FIG. 5", "excerpt": "Brain tissues included two regions from the hippocampus (Dentate Gyrus (DG) and CA1) and a region from the cortex (P2).\nBrain and colon tissue were stained using the HE method. Brain tissue included two regions from the hippocampus (Dentate Gyrus (DG) and CA1) and a region from the cortex (P2). The results are shown in FIG. 5 and reveal that for the control group, neurons in hippocampal regions (dentate gyrus (DG) and Ca1) and the cortex (P2) were normal, orderly, tightly packed cells. The cells had expected morphology, homogeneous cytoplasmic staining, and no increased interstitial or abnormal changes.\nFor the colon tissue, control intestinal villi were arranged neatly, with normal cell morphology and no obvious damage was seen."}, "[6]": {"conditions": "after CUMS, before intervention"}, "[7]": {"conditions": "base line, before CUMS and before intervention"}, "[8]": {"conditions": "serum, after CUMS with intervention"}, "[9]": {"conditions": "serum, after CUMS, before intervention"}},
  "note": "Marks after values point to notes of the source that are not given here.",
  "data": [
    {"molecule": "CNCCC(Oc1ccc(C(F)(F)F)cc1)c1ccccc1", "note": "(stereo not shown) [Flu, fluoxetine, reference compound]", "values": [
      {"measurement": "Total Distance Travelled in Open Field Test, After CUMS only (x ± S)", "setting": "CUMS rats [1]; after 40 days CUMS, before intervention", "value": "2.89 ± 2.15^a Metres"},
      {"measurement": "Vertical Movement (Number of Times Standing Up) in Open Field Test, After intervention (x ± S)", "setting": "CUMS rats [1]; after CUMS with intervention", "value": "11.20 ± 3.49^b"},
      {"measurement": "Vertical Movement (Number of Times Standing Up) in Open Field Test, After CUMS (x ± S)", "setting": "CUMS rats [1]; [6]", "value": "2.00 ± 1.79^a"},
      {"measurement": "Total Distance Travelled in Open Field Test, Base line (x ± S)", "setting": "CUMS rats [1]; [7]", "value": "23.34 ± 2.98", "unit": "Metres"},
      {"measurement": "Vertical Movement (Number of Times Standing Up) in Open Field Test, Base line (x ± S)", "setting": "CUMS rats [1]; [7]", "value": "17.20 ± 8.04"},
      {"measurement": "Time in Closed Arms in Elevated Plus Maze, After intervention (x ± S)", "setting": "CUMS rats [2]; after CUMS with intervention", "value": "224.96 ± 18.71^b Seconds"},
      {"measurement": "Total Distance Travelled in Elevated Maze Test, After intervention (x ± S)", "setting": "CUMS rats [2]; after CUMS with intervention", "value": "6.19 ± 1.75^b Metres"},
      {"measurement": "Time in Closed Arms in Elevated Plus Maze, After CUMS (x ± S)", "setting": "CUMS rats [2]; [6]", "value": "292.57 ± 8.90^a Seconds"},
      {"measurement": "Total Distance Travelled in Elevated Maze Test, After CUMS (x ± S)", "setting": "CUMS rats [2]; [6]", "value": "2.37 ± 1.12^a Metres"},
      {"measurement": "Time in Closed Arms in Elevated Plus Maze, Base line (x ± S)", "setting": "CUMS rats [2]; [7]", "value": "240.31 ± 16.95", "unit": "s"},
      {"measurement": "Total Distance Travelled in Elevated Maze Test, Base line (x ± S)", "setting": "CUMS rats [2]; [7]", "value": "7.44 ± 1.38", "unit": "Metres"},
      {"measurement": "TNF-α Content, Brain", "setting": "TNF-α; brain, end of experiment", "value": "48.62 ± 7.26^b pg/ml"},
      {"measurement": "TNF-α Content, Colon", "setting": "TNF-α; colon, end of experiment", "value": "69.09 ± 12.48^b pg/ml"},
      {"measurement": "TNF-α Content, serum-after intervention", "setting": "TNF-α; [8]", "value": "9.83 ± 3.83^b pg/ml"},
      {"measurement": "TNF-α Content, serum-after CUMS", "setting": "TNF-α; [9]", "value": "23.35 ± 6.46^a pg/ml"},
      {"measurement": "IL-6 Content, Brain", "setting": "IL-6; brain, end of experiment", "value": "19.35 ± 4.29^b pg/ml"},
      {"measurement": "IL-6 Content, Colon", "setting": "IL-6; colon, end of experiment", "value": "30.89 ± 7.22^b pg/ml"},
      {"measurement": "IL-6 Content, serum-after intervention", "setting": "IL-6; [8]", "value": "9.83 ± 3.83^b pg/ml"},
      {"measurement": "IL-6 Content, serum-after CUMS", "setting": "IL-6; [9]", "value": "13.35 ± 6.46^a pg/ml"},
      {"measurement": "Serum Corticotropin Releasing Hormone (CRH) Content, After CUMS", "setting": "[3]", "value": "5.50 ± 2.02^a pg/ml"},
      {"measurement": "Serum Adrenocorticotropic Hormone (ACTH) Content, After intervention", "setting": "[4]; after CUMS with intervention", "value": "2.90 ± 2.20^b pg/ml"},
      {"measurement": "Serum Adrenocorticotropic Hormone (ACTH) Content, After CUMS", "setting": "[4]; [6]", "value": "5.58 ± 1.41^a pg/ml"},
      {"measurement": "Levels of cytokines TNF-alpha, IL-6, IL-1β and IL-18", "setting": "[5]", "value": "reduced levels of cytokines"},
      {"measurement": "Morphology of hippocampus (DG, CA1) and cortex (P2)", "setting": "brain and colon tissue; brain", "value": "CUMS-associated damage was largely reduced"},
      {"measurement": "Morphology of colon tissue (intestinal villi, mucosa)", "setting": "brain and colon tissue; colon", "value": "largely reduced"}
    ]}
  ]
}
